Assays:
bESCs [1] = assay: bESC growth in mTeSR medium with DAPT and IWR-1 (Medium 3 / Method 3); type: cell-based, bovine
Description: To test whether DAPT can be used for bESC cultures, the growth of bESC was tested in mTeSR medium with different concentrations of DAPT and IWR-1. […] Addition of IWR-1 to DAPT had no effect on bESCs. (FIG. 3, Table 6; bESC Medium 3/Method 3). mTeSR with 10 μM DAPT alone supported bESC cultures for more than 7 passages.
In Method 3, bESC were cultured in bESC medium 3 composed of TeSR Plus (WiCell) supplemented with […] of gamma γ-secretase inhibitor DAPT on collagen or a vitronectin-coated 6-well plate and were passage using PBS-EDTA. Following aspiration of bESC growth media, 0.7-1.2 mL of PBS-EDTA solution was added to each well of 6 well plate. After incubation 5 to 6 min at +37° C., PBS-EDTA was carefully removed by aspiration and 1-1.2 mL of cold (+1-+4° C.) TeSR medium was added, cells were suspended by pipette filtered via strainer (70 mkM), counted and an aliquot of 100,000 to 150,000 cell/well for 6 wells plate was taken and cells were centrifuged at 100 g for 5 minutes. Cell pellets were resuspended in 9 mL growth medium and plated on a collagen or vitronectin coated 6-well plate. Cells grew for 5-7 days until they formed large colonies. PBS-EDTA solution was prepared as described above.

bESCs [2] = assay: Matrix coating supporting expansion of bESCs in feeder-free conditions; type: cell-based, bovine; details: for bESC growth on pre-coated plate (FIG. 2): Method 1 bESCs, medium with 2.5 μM IWR-1 (bESC medium 1)
Text: After co-culture with MEFs, bESCs were collected using TrypLE treatment and cultured in 6-well plastic plates in feeder-free conditions for expansion. […] However, collagen pre-coated plates can be used to support bESC growth in bESC medium 2.
To establish feeder-free conditions for bESCs, bESCs were collected from coculture with MEFs using TrypLE treatment and transferred into 6-well plastic plates precoated Vitronectin XF, collagen, or Matrigel®.
Vitronectin Coating Preparation: A frozen vial of Vitronectin XF (2 mL) from Stem Cell Technology (Cat #07180) was thawed and mixed with 50 mL of DPBS and distributed into 6 of 6-well plates (˜1.4 mL/well) sealed with Parafilm and kept wrapped in foil at +4° C. for not more than 2 weeks. Before use, the plate was kept at +37° C. for at least 1 hr. Immediately after aspiration excess of liquid, bESCs in culture medium were added.
Collagen Coating Preparation: Collagen (Sigma, Cat #5162-1G) was dissolved in distilled water and sterilized by filtration using 0.22 um filter. Collagen solution aliquoted into 70 μL PCR tubes and kept at −80° C. before use. For coating wells, the content of tube was transferred into 50 mL DPBS, carefully mixed, and distributed into 6 of 6 wells plate, approximately 1.3-1.4 mL/well. Plates sealed with Parafilm and kept at RT not more than 2 wecks.
Matrigel® Coating Preparation: Frozen stock (˜0.5 mL) of Matrigel® needs was thaw on ice and diluted in 50 mL of cold DPBS (+4° C.). Approximately 1.2-1.3 mL (9 μg/cm^2) of diluted Matrigel® solution was added to each well. After 1 hour incubation at +37° C. excess Matrigel® was removed and wells washed with warm DPBS.

bESCs [3] = assay: bESC growth in Medium 1 with alternative Wnt inhibitors (Medium 1a/1b) on vitronectin, feeder-free; type: cell-based, bovine
Description: 1) Wnt-inhibitors (Medium la and Medium 1b): In prior studies, mTeSR Plus medium supplemented with 20 ng/ml human FGF2 and 2.5 μM IWR1 was used for bESC cultures (Saito et al. 1992; Stice et al. 1996). […] Nat Chem Biol 11, 973-980 (2015); and Mallinger et al., Discovery of potent, orally bioavailable, small-molecule inhibitors of WNT signaling from a cell-based pathway screen.
bESC growth in Medium 1 was tested with concentrations of 1 nM, 5 nM, or 10 nM iCRT3 (Medium 1a).
In another set of experiments, bESC growth in Medium 1 was tested with concentrations of 1 nM, 5 nM, 75 nM, or 150 nM CCT251545 (Medium 1b).
In Method 1, bESC colonies growing on Vitronectin were passaged by using TrypLe. Following medium aspiration 0.5-0.8 mL of TrypLE was added to each well of 6 well plate. Cells incubated for 3.5 min at 37.2° C. Then TrypLE has been carefully removed by aspiration and 1-1.2 mL of cold (+1-+4° C.) TeSRr medium was added, cells were suspended by pipette filtered via strainer (70 mkM), counted and an aliquot of 70,000 to 100,000 cell/well for 6 wells plate was taken and cells centrifuged at 100 g for 5 minutes. The cell pellet was resuspended in 9 mL growth medium and seeded on coated by vitronectin 6-well plate.

[4] = test system: bovine embryo derived blastocysts; assay: Generation of bESC lines from blastocysts on different coatings; type: cell-based; details: Method 1
Description: bESCs were generated from IVM/IVF bovine embryo derived blastocysts on 6th to 7th days post-fertilization. Briefly, bovine embryos were obtained from an outside source and cultured in TeSR Plus medium supplemented with 15% fetal bovine serum from 24 to 72 hours to get an expanded blastocyst stage. After that zona pellucida was removed by treating embryos with pronase. Embryos with stripped zona pellucida were plated on irradiated MEFs (obtained from WICell) in a 4-well IVF plate and cultured according to Method 1 or Method 2. Following expansion of inner cell mass after culture for 2-3 weeks on MEFs, cells were disaggregated by TrypLE, and bESC were generated from individual blastocysts by two Methods (Method 1 or Method 2) to maximize efficiency.
To determine if feeder-free conditions were suitable for maximizing generation of bESCs from inner cell mass, individual blastocysts were placed into culture plates according to Method 1 or Method 2 with coating conditions modified as shown in Table 1. Coating conditions using MEF feeder cells or vitronectin (feeder-free) were tested. In the first set, 11 bovine embryos were used to establish 4 bESC lines, 3 of which were differentiated and tossed after passage 5-7. Only one cell line remained undifferentiated and maintained expression of bESC pluripotency factors Oct4 and Sox2. […]

[5] = feeder-free, bESC medium 1 or 2
[6] = 1 nM inhibitor in Medium 1, vitronectin

O=C(Nc1cccc2cccnc12)c1ccc(N2C(=O)[C@@H]3[C@H](C2=O)[C@@H]2C=C[C@H]3C2)cc1 [IWR-1]
effect on bESCs of addition to DAPT (bESCs [1]; IWR-1 added to DAPT in mTeSR medium): no effect

C[C@H](NC(=O)Cc1cc(F)cc(F)c1)C(=O)NC(C(=O)OC(C)(C)C)c1ccccc1 (some centres unmarked) [DAPT]
growth of bESCs (bESCs [1]; DAPT alone at 5-10 μM in mTeSR medium): sufficient to support growth of bESCs | passages of supported bESC cultures (bESCs [1]; mTeSR with 10 μM DAPT alone): more than 7 passages

collagen
bESC growth on pre-coated plate (FIG. 2) (bESCs [2]): supports bESC cultures | bESC adherence to matrix (bESCs [2]; bESC medium 1): very lightly and weak | bESC colony formation and growth on matrix (bESCs [2]; bESC medium 2): able to form colonies and grow | bESC morphology on matrix (bESCs [2]; [5]): maintained a typical bESC morphology

Cn1cc(-c2ccc(-c3cncc(Cl)c3N3CCC4(CCNC4=O)CC3)cc2)cn1 [CCT251545]
bESC growth on vitronectin (bESCs [3]; 1 nM inhibitor in Medium 1): did not support bESC growth | passages after which cells died (bESCs [3]; [6]): 2-3 passages | bESC growth on vitronectin (bESCs [3]; 5 nM inhibitor in Medium 1): did not support bESC growth | bESC growth on vitronectin (bESCs [3]; 75 nM inhibitor in Medium 1): did not support bESC growth | bESC growth with typical morphology and expression of Sox2 and Oct4 (bESCs [3]; 150 nM inhibitor in Medium 1): supported bESC growth | passages of supported bESC growth (bESCs [3]; 150 nM inhibitor in Medium 1): more than 7 passages

CCc1ccc(-c2nc(CSCC(=O)NCCc3ccccc3)c(C)o2)cc1 [iCRT3]
bESC growth on vitronectin (bESCs [3]; 1 nM inhibitor in Medium 1): did not support bESC growth | passages after which cells died (bESCs [3]; [6]): 1-2 passages | bESC growth on vitronectin (bESCs [3]; 5 nM inhibitor in Medium 1): did not support bESC growth | passages after which cells died (bESCs [3]; 5 nM inhibitor in Medium 1, vitronectin): 2-4 passages | bESC growth with typical morphology and expression of Sox2 and Oct4 (bESCs [3]; 10 nM inhibitor in Medium 1): supported bESC growth | passages of supported bESC growth (bESCs [3]; 10 nM inhibitor in Medium 1): more than 10 passages

gelatin
bESC growth on pre-coated plate (FIG. 2) (bESCs [2]): do not support the growth of bESCs | bESC attachment to pre-coated plates (bESCs [2]; [5]): attached | bESC growth on pre-coated plates (bESCs [2]; [5]): did not grow

B1: vitronectin + Cover Glass on the top: vitronectin coating with cover glass on top (protein, UniProt P04004 20-478, looked up)
Vitronectin: DQESCKGRCTEGFNVDKKCQCDELCSYYQSCCTDYTAECKPQVTRGDVFTMPEDEYTVYDDGEEKNNATVHEQVGGPSLTSDLQAQSKGNPEQTPVLKPEEEAPAPEVGASKPEGIDSRPETLHPGRPQPPAEEELCSGKPFDAFTDLKNGSLFAFRGQYCYELDEKAVRPGYPKLIRDVWGIEGPIDAAFTRINCQGKTYLFKGSQYWRFEDGVLDPDYPRNISDGFDGIPDNVDAALALPAHSYSGRERVYFFKGKQYWEYQFQHQPSQEECEGSSLSAVFEHFAMMQRDSWEDIFELLFWGRTSAGTRQPQFISRDWHGVPGQVDAAMAGRIYISGMAPRPSLAKKQRFRHRNRKGYRSQRGHSRGRNQNSRRPSRATWLSLFSSEESNLGANNYDDYRMDWLVPATCEPIQSVFFFSGDKYYRVNLRTRRVDTVDPPYPRSIAQYWLGCPAPGHL
Number of bESC lines generated [4]: 0

From US20250019657A1, “Generation of Adipocytes from Bovine Embryonic Stem Cell Lines” (Wisconsin Alumni Research Foundation, priority 2023, published 2025)
